Assay results from US20250281424A1 (New York Blood Center, Inc, priority 2020, published 2025).

Molecular target: T1, human PF4 (Homo sapiens, UniProt P02776)
T1 construct: PF4 is a 70 amino acid, lysine-rich 7.8 kDa platelet-specific protein; made in house; host or cells: Escherichia coli BL21DE3 pLysS (pT7-7) and/or Drosophila S2 cells
T1 sequence (P02776 32-101): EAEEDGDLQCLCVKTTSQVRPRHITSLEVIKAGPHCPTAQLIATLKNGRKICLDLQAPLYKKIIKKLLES
Assay: Inhibition of PF4 tetramer formation (BS3 cross-linking, SDS-PAGE)
Type: biochemical
Details: read-out: % inhibition of PF4 tetramer formation at single concentration of inhibitor; for inhibition at 10 µM: 10 μM inhibitor (column A); for inhibition at 1 µM: 1 μM inhibitor; for inhibition at 3 µM: 3 μM inhibitor (column A)
In short: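 Monomer, dimer, trimer and tetramer fractions were quantified by densitometry after reducing 12% SDS-PAGE of BS3-cross-linked (0.2 mM, 30 min, room temperature) PF4. Before cross-linking, 10 μg/ml E. coli-expressed human WT PF4 in PBS was exposed to compound for 15 min at 37° C or 60 min at room temperature; controls lacked compound.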

SMILES	inhibition at 1 µM [%]	inhibition at 3 µM [%]	inhibition at 10 µM [%]
O=C(O)CNC(=O)C1C(=O)c2ccc(S(=O)(=O)c3ccc4c(c3)C(=O)C(C(=O)NCC(=O)O)C4=O)cc2C1=O (centres unmarked) [Example 311, 2-{[5-({2-[(carboxymethyl)carbamoyl]-1,3-dioxo-2,3-dihydro-1H-inden-5-yl}sulfonyl)-1,3-dioxo-2,3-dihydro-1H-inden-2-yl]formamido}acetic acid]			73
C[C@H](NC(=O)C1C(=O)c2ccc(Oc3ccc4c(c3)C(=O)C(C(=O)N[C@@H](C)C(=O)O)C4=O)cc2C1=O)C(=O)O (stereo partly drawn) [Example 313, (2S)-2-({5-[(2-{[(1S)-1-carboxyethyl]carbamoyl}-1,3-dioxo-2,3-dihydro-1H-inden-5-yl)oxy]-1,3-dioxo-2,3-dihydro-1H-inden-2-yl}formamido) propanoic acid]	31	67	
C[C@H](NC(=O)C1C(=O)c2ccc(C(=O)c3ccc4c(c3)C(=O)C(C(=O)N[C@@H](C)C(=O)O)C4=O)cc2C1=O)C(=O)O (stereo partly drawn) [Example 316, (2S)-2-{[5-(2-{[(1S)-1-carboxyethyl]carbamoyl}-1,3-dioxo-2,3-dihydro-1H-indene-5-carbonyl)-1,3-dioxo-2,3-dihydro-1H-inden-2-yl]formamido}propanoic acid]	25	50	
CC(C)(C)OC(=O)NCC(=O)C1C(=O)c2ccc(C#Cc3ccc4c(c3)C(=O)C(C(=O)CNC(=O)OC(C)(C)C)C4=O)cc2C1=O (centres unmarked) [Example 319, tert-butyl N-[2-(5-{2-[2-(2-{[(tert-butoxy)carbonyl]amino}acetyl)-1,3-dioxo-2,3-dihydro-1H-inden-5-yl]ethynyl}-1,3-dioxo-2,3-dihydro-1H-inden-2-yl)-2-oxoethyl]carbamate]	13	22	
CN(CC(=O)C1C(=O)c2ccc(C#Cc3ccc4c(c3)C(=O)C(C(=O)CN(C)C(=O)OC(C)(C)C)C4=O)cc2C1=O)C(=O)OC(C)(C)C (centres unmarked) [Example 320, tert-butyl N-[2-(5-{2-[2-(2-{[(tert-butoxy)carbonyl](methyl)amino}acetyl)-1,3-dioxo-2,3-dihydro-1H-inden-5-yl]ethynyl}-1,3-dioxo-2,3-dihydro-1H-inden-2-yl)-2-oxoethyl]-N-methylcarbamate]	12	26	
CCCC(=O)C1C(=O)c2ccc(Oc3ccc4c(c3)C(=O)C(C(=O)CCC)C4=O)cc2C1=O (centres unmarked) [Example 321, 2-butanoyl-5-[(2-butanoyl-1,3-dioxo-2,3-dihydro-1H-inden-5-yl)oxy]-2,3-dihydro-1H-indene-1,3-dione]	17	23	
CCCC(=O)C1C(=O)c2ccc(S(=O)(=O)c3ccc4c(c3)C(=O)C(C(=O)CCC)C4=O)cc2C1=O (centres unmarked) [Example 322, 2-butanoyl-5-[(2-butanoyl-1,3-dioxo-2,3-dihydro-1H-inden-5-yl)sulfonyl]-2,3-dihydro-1H-indene-1,3-dione]			40
CCC(=O)C1C(=O)c2ccc(Oc3ccc4c(c3)C(=O)C(C(=O)CC)C4=O)cc2C1=O (centres unmarked) [Example 323, 5-[(1,3-dioxo-2-propanoyl-2,3-dihydro-1H-inden-5-yl)oxy]-2-propanoyl-2,3-dihydro-1H-indene-1,3-dione]	7	18	
CCC(=O)C1C(=O)c2ccc(C(=O)c3ccc4c(c3)C(=O)C(C(=O)CC)C4=O)cc2C1=O (centres unmarked) [Example 324, 5-(1,3-dioxo-2-propanoyl-2,3-dihydro-1H-indene-5-carbonyl)-2-propanoyl-2,3-dihydro-1H-indene-1,3-dione]			35
CCC(=O)C1C(=O)c2ccc(S(=O)(=O)c3ccc4c(c3)C(=O)C(C(=O)CC)C4=O)cc2C1=O (centres unmarked) [Example 325, 5-[(1,3-dioxo-2-propanoyl-2,3-dihydro-1H-inden-5-yl)sulfonyl]-2-propanoyl-2,3-dihydro-1H-indene-1,3-dione]			34
NCC(=O)C1C(=O)c2ccc(Oc3ccc4c(c3)C(=O)C(C(=O)CN)C4=O)cc2C1=O (centres unmarked) [Example 326, 2-(2-aminoacetyl)-5-{[2-(2-aminoacetyl)-1,3-dioxo-2,3-dihydro-1H-inden-5-yl]oxy}-2,3-dihydro-1H-indene-1,3-dione]	13	26	
CC[C@H](C)[C@H](NC(=O)C1C(=O)c2ccc(C(=O)c3ccc4c(c3)C(=O)C(C(=O)N[C@H](C(=O)OC)[C@@H](C)CC)C4=O)cc2C1=O)C(=O)OC (stereo partly drawn) [Example 332, methyl (2S,3S)-2-{[5-(2-{[(2S,3S)-1-methoxy-3-methyl-1-oxopentan-2-yl]carbamoyl}-1,3-dioxo-2,3-dihydro-1H-indene-5-carbonyl)-1,3-dioxo-2,3-dihydro-1H-inden-2-yl]formamido}-3-methylpentanoate]	5	13	
CC[C@H](C)[C@H](NC(=O)C1C(=O)c2ccc(S(=O)(=O)c3ccc4c(c3)C(=O)C(C(=O)N[C@H](C(=O)OC)[C@@H](C)CC)C4=O)cc2C1=O)C(=O)OC (stereo partly drawn) [Example 333, methyl (2S,3S)-2-({5-[(2-{[(2S,3S)-1-methoxy-3-methyl-1-oxopentan-2-yl]carbamoyl}-1,3-dioxo-2,3-dihydro-1H-inden-5-yl)sulfonyl]-1,3-dioxo-2,3-dihydro-1H-inden-2-yl}formamido)-3-methylpentanoate]	15	21	
O=C(c1ccc2c(c1)C(=O)C(C(=O)[C@@H]1CCNC1)C2=O)c1ccc2c(c1)C(=O)C(C(=O)[C@H]1CCCN1)C2=O (stereo partly drawn) [Example 349, 5-{1,3-dioxo-2-[(3R)-pyrrolidine-3-carbonyl]-2,3-dihydro-1H-indene-5-carbonyl}-2-[(2R)-pyrrolidine-2-carbonyl]-2,3-dihydro-1H-indene-1,3-dione]	2	27	

Now from value to molecule, other results behind:

inhibition at 1 µM [%]	inhibition at 3 µM [%]	SMILES	inhibition at 10 µM [%]
9	28	CC(=O)C1C(=O)c2ccc(N(C)S(=O)(=O)c3ccc4c(c3)C(=O)C(C(C)=O)C4=O)cc2C1=O (centres unmarked) [Example 314, -acetyl-N-(2-acetyl-1,3-dioxo-2,3-dihydro-1H-inden-5-yl)-N-methyl-1,3-dioxo-2,3-dihydro-1H-indene-5-sulfonamide]	
15	36	C[C@H](NC(=O)C1C(=O)c2ccc(S(=O)(=O)c3ccc4c(c3)C(=O)C(C(=O)N[C@@H](C)C(=O)O)C4=O)cc2C1=O)C(=O)O (stereo partly drawn) [Example 318, (2S)-2-({5-[(2-{[(1S)-1-carboxyethyl]carbamoyl}-1,3-dioxo-2,3-dihydro-1H-inden-5-yl)sulfonyl]-1,3-dioxo-2,3-dihydro-1H-inden-2-yl}formamido) propanoic acid]	
13	24	NCC(=O)C1C(=O)c2ccc(C(=O)c3ccc4c(c3)C(=O)C(C(=O)CN)C4=O)cc2C1=O (centres unmarked) [Example 327, 2-(2-aminoacetyl)-5-[2-(2-aminoacetyl)-1,3-dioxo-2,3-dihydro-1H-indene-5-carbonyl]-2,3-dihydro-1H-indene-1,3-dione]	
16	26	O=C(c1ccc2c(c1)C(=O)C(C(=S)NC1CC1)C2=O)c1ccc2c(c1)C(=O)C(C(=S)NC1CC1)C2=O (centres unmarked) [Example 328, N-cyclopropyl-5-[2-(cyclopropylcarbamothioyl)-1,3-dioxo-2,3-dihydro-1H-indene-5-carbonyl]-1,3-dioxo-2,3-dihydro-1H-indene-2-carbothioamide]	
22	50	O=C1c2ccc(S(=O)(=O)c3ccc4c(c3)C(=O)C(C(=S)NC3CC3)C4=O)cc2C(=O)C1C(=S)NC1CC1 (centres unmarked) [Example 329, N-cyclopropyl-5-{[2-(cyclopropylcarbamothioyl)-1,3-dioxo-2,3-dihydro-1H-inden-5-yl]sulfonyl}-1,3-dioxo-2,3-dihydro-1H-indene-2-carbothioamide]	
6	22	CC(=O)C1C(=O)c2ccc(Oc3ccc4c(n3)C(=O)C(C(C)=O)C4=O)cc2C1=O (centres unmarked) [Example 330, 6-acetyl-2-[(2-acetyl-1,3-dioxo-2,3-dihydro-1H-inden-5-yl)oxy]-5H,6H,7H-cyclopenta[b]pyridine-5,7-dione]	
37	66	CC[C@H](C)[C@H](NC(=O)C1C(=O)c2ccc(Oc3ccc4c(c3)C(=O)C(C(=O)N[C@H](C(=O)OC)[C@@H](C)CC)C4=O)cc2C1=O)C(=O)OC (stereo partly drawn) [Example 331, methyl (2S,3S)-2-({5-[(2-{[(2S,3S)-1-methoxy-3-methyl-1-oxopentan-2-yl]carbamoyl}-1,3-dioxo-2,3-dihydro-1H-inden-5-yl)oxy]-1,3-dioxo-2,3-dihydro-1H-inden-2-yl}formamido)-3-methylpentanoate]	
27	40	CCNC(=O)C1C(=O)c2ccc(Oc3ccc4c(c3)C(=O)C(C(=O)NCC)C4=O)cc2C1=O (centres unmarked) [Example 334, N-ethyl-5-{[2-(ethylcarbamoyl)-1,3-dioxo-2,3-dihydro-1H-inden-5-yl]oxy}-1,3-dioxo-2,3-dihydro-1H-indene-2-carboxamide]	
23	39	CCNC(=O)C1C(=O)c2ccc(C(=O)c3ccc4c(c3)C(=O)C(C(=O)NCC)C4=O)cc2C1=O (centres unmarked) [Example 335, N-ethyl-5-[2-(ethylcarbamoyl)-1,3-dioxo-2,3-dihydro-1H-indene-5-carbonyl]-1,3-dioxo-2,3-dihydro-1H-indene-2-carboxamide]	
25	35	CCNC(=O)C1C(=O)c2ccc(S(=O)(=O)c3ccc4c(c3)C(=O)C(C(=O)NCC)C4=O)cc2C1=O (centres unmarked) [Example 336, N-ethyl-5-{[2-(ethylcarbamoyl)-1,3-dioxo-2,3-dihydro-1H-inden-5-yl]sulfonyl}-1,3-dioxo-2,3-dihydro-1H-indene-2-carboxamide]	
